Measurements from ChEMBL document CHEMBL3044811, “Efficacy of grain protectants against four psocid species on maize, rice and wheat” (2009).
Calls of active or inactive are those of the source. The calls are words filed in the database; no cut-off is given here.

Tests used:
Liposcelis entomophila [1] = assay: Insecticidal activity against Liposcelis entomophila in compound pre-treated maize grains assessed as mortality at 8 ppm after 14 days (reference value: 14.4 +/-4.1%); assay type: functional
Liposcelis entomophila [2] = assay: Insecticidal activity against Liposcelis entomophila in compound pre-treated maize grains assessed as mortality at 8 ppm after 7 days (reference value: 15.6 +/-6.9%); assay type: functional
[3] = tested on: Liposcelis bostrychophila; assay: Insecticidal activity against Liposcelis bostrychophila (booklice) in compound pre-treated maize grains assessed as decrease in progeny production at 8 ppm after 30 days; assay type: functional, organism-based
[4] = tested on: Liposcelis bostrychophila; assay: Insecticidal activity against Liposcelis bostrychophila (booklice) in compound pre-treated maize grains assessed as mortality at 8 ppm after 14 days (reference value: 13.5 +/-5.3%); assay type: functional
[5] = tested on: Liposcelis bostrychophila; assay: Insecticidal activity against Liposcelis bostrychophila (booklice) in compound pre-treated maize grains assessed as mortality at 8 ppm after 7 days (reference value: 8.9 +/-2.6%); assay type: functional
Lepinotus reticulatus [6] = assay: Insecticidal activity against Lepinotus reticulatus in compound pre-treated maize grains assessed as mortality at 8 ppm after 7 days (reference value: 34.4 +/-11.4%); assay type: functional
Liposcelis entomophila [7] = assay: Insecticidal activity against Liposcelis entomophila in compound pre-treated maize grains assessed as decrease in progeny production at 8 ppm after 30 days; assay type: functional, organism-based
Lepinotus reticulatus [8] = assay: Insecticidal activity against Lepinotus reticulatus in compound pre-treated maize grains assessed as decrease in progeny production at 8 ppm after 30 days; assay type: functional, organism-based
Lepinotus reticulatus [9] = assay: Insecticidal activity against Lepinotus reticulatus in compound pre-treated maize grains assessed as mortality at 8 ppm after 14 days (reference value: 61.1 +/-11.9%); assay type: functional
Liposcelis paeta [10] = assay: Insecticidal activity against Liposcelis paeta in compound pre-treated maize grains assessed as mortality at 8 ppm after 14 days (reference value: 14.1 +/-4.1%); assay type: functional
Liposcelis paeta [11] = assay: Insecticidal activity against Liposcelis paeta in compound pre-treated maize grains assessed as mortality at 8 ppm after 7 days (reference value: 13.3 +/-3.3%); assay type: functional

In the case of CCN(CC)c1nc(C)cc(OP(=S)(OC)OC)n1 [PIRIMIPHOS METHYL], the mortality at 8 ppm (Liposcelis entomophila [1]) is reported as 100%, the mortality at 8 ppm (Liposcelis entomophila [2]) is reported as 100% and the inhibition [3] is reported as “Active”. It also gave a mortality at 8 ppm [4] of 100%, a mortality at 8 ppm [5] of 100% and a mortality at 8 ppm (Lepinotus reticulatus [6]) of 100%. For the same molecule, the inhibition (Liposcelis entomophila [7]) was “Active”, the inhibition (Lepinotus reticulatus [8]) was “Active” and the mortality at 8 ppm (Lepinotus reticulatus [9]) was 100%. For the same molecule, the mortality at 8 ppm (Liposcelis paeta [10]) was 100% and the mortality at 8 ppm (Liposcelis paeta [11]) was 97.8%.
